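Each compound was tested at five concentrations against cells in 96-well plates for 48 hours. Abbreviation: GI50, concentration required for 50% inhibition of growth. TGI: concentration producing complete growth inhibition.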
Legend:
Assay in all cases: NCI-60 cell line screen, 48 h
[1] = test system: MALME-3M melanoma
[2] = test system: TK-10 renal
[3] = test system: SNB-19 CNS
[4] = test system: HT29 colon
[5] = test system: BT-549 breast
[6] = test system: OVCAR-4 ovarian
[7] = test system: UACC-257 melanoma
[8] = test system: SK-OV-3 ovarian
[9] = test system: PC-3 prostate
[10] = test system: HCC-2998 colon

Compound | TGI [1] | TGI [2] | TGI [3] | TGI [4] | TGI [5] | TGI [6] | TGI [7] | TGI [8] | TGI [9] | TGI [10] | GI50 [1] | GI50 [2] | GI50 [5] | GI50 [7] | GI50 [8] | GI50 [9] | GI50 [3] | GI50 [10] | GI50 [4] | GI50 [6]
COc1ccc(CNc2nc(NCc3ccc(OC)cc3)nc(N3CCOCC3)n2)cc1 | 5.84 µM | 28.8 µM | > 100 µM | 9.63 µM | > 100 µM | > 100 µM | > 100 µM | > 100 µM | > 100 µM | – | – | – | – | – | – | – | – | – | – | –
CC1(C)[C@@H]2C[C@H]1c1cnc(-c3ccccn3)cc1C2[C@@H]1c2cc(-c3ccccn3)ncc2[C@@H]2C[C@H]1C2(C)C (some centres undefined) | > 100 µM | 75.1 µM | > 100 µM | > 100 µM | > 100 µM | 85.3 µM | > 100 µM | > 100 µM | > 100 µM | > 100 µM | – | – | – | – | – | – | – | – | – | –
N#CC1=CNc2sccc2S1(=O)=O | > 100 µM | > 100 µM | > 100 µM | > 100 µM | > 100 µM | > 100 µM | > 100 µM | > 100 µM | > 100 µM | > 100 µM | – | – | – | – | – | – | – | – | – | –
CC1=CC[C@@H]2CC[C@]3(C)[C@H](CC[C@@H]4[C@@]5(C)CCCNC(C)(C)[C@@H]5CC[C@]43C)[C@H]2[C@@H]1C | 3.48 µM | 3.37 µM | – | – | 3.14 µM | – | 3.63 µM | 3.5 µM | 3.02 µM | – | 1.77 µM | 1.81 µM | 1.66 µM | 1.86 µM | 1.89 µM | 1.58 µM | – | – | – | –
CCOC(=O)c1cn(-c2ccc(Cl)cc2)c(=O)n2c1nc1ccccc12 | – | – | > 100 µM | > 100 µM | > 100 µM | > 100 µM | > 100 µM | – | > 100 µM | > 100 µM | – | – | – | – | – | – | – | – | – | –
COC(OC)C(O)C1OC=CC1n1cnc2c(N)ncnc21 (centres undefined) | – | > 100 µM | – | > 100 µM | > 100 µM | > 100 µM | > 100 µM | > 100 µM | > 100 µM | > 100 µM | – | – | – | – | – | – | – | – | – | –
CCOC(=O)c1sc2c(c1OC(=O)c1ccccc1)c(=O)n(-c1ccccc1)c(=S)n2-c1ccccc1 | 54.5 µM | > 100 µM | > 100 µM | 38.1 µM | – | 32 µM | > 100 µM | > 100 µM | > 100 µM | 74.5 µM | – | – | – | – | – | – | – | – | – | –
Nc1nc2c(ncn2C2C=CC(CO)O2)c(=O)[nH]1 (centres undefined) | > 100 µM | > 100 µM | > 100 µM | > 100 µM | > 100 µM | > 100 µM | > 100 µM | – | > 100 µM | – | – | – | – | – | – | – | – | – | – | –
CCOC(=O)C(O)(NC(C)=O)C(F)(F)F (centres undefined) | > 100 µM | > 100 µM | > 100 µM | > 100 µM | > 100 µM | > 100 µM | > 100 µM | > 100 µM | > 100 µM | > 100 µM | – | – | – | – | – | – | – | – | – | –
O=C(O)c1ccc(Nc2nc3cc(C(F)(F)F)ccc3nc2C(=O)O)cc1 | > 100 µM | – | > 100 µM | > 100 µM | > 100 µM | > 100 µM | – | – | > 100 µM | > 100 µM | – | – | – | – | – | – | – | – | – | –
O=[As](O)(O)c1cc(N=Nc2ccc(-c3ccc(N=Nc4cc([As](=O)(O)O)c(O)cc4O)cc3)cc2)c(O)cc1O | > 100 µM | > 100 µM | > 100 µM | > 100 µM | – | > 56.8 µM | > 100 µM | > 100 µM | – | > 100 µM | – | – | – | – | – | – | – | – | – | –
COc1cc(C2C3=C(COC3=O)OC(C)(C)Oc3cc4c(cc32)OCO4)cc(OC)c1OC (centres undefined) | > 100 µM | > 100 µM | – | 0.662 µM | > 100 µM | > 96.2 µM | > 100 µM | > 100 µM | > 100 µM | > 100 µM | – | – | – | – | – | – | – | – | – | –
N#CCCN(CCCN(C(=O)Nc1ccccc1)c1ccccc1)C(=O)Nc1ccccc1 | > 100 µM | > 100 µM | > 100 µM | > 100 µM | > 100 µM | > 100 µM | > 100 µM | > 100 µM | > 100 µM | > 100 µM | – | – | – | – | – | – | – | – | – | –
Cc1ccc(O)c(C2=NNC(c3cccc(Br)c3)C2)c1 (centres undefined) | > 100 µM | > 100 µM | 76.3 µM | > 100 µM | > 100 µM | – | > 100 µM | > 100 µM | > 100 µM | > 100 µM | – | – | – | – | – | – | – | – | – | –
CCOC(=O)C1=C(C)NC(=S)NC1c1cccc(O)c1 (centres undefined) | > 100 µM | > 100 µM | > 100 µM | > 100 µM | > 100 µM | > 100 µM | > 100 µM | > 100 µM | > 89.6 µM | > 90.4 µM | – | – | – | – | – | – | – | – | – | –
CC[N+](CC)=c1ccc2nc3c(cc(N)c4ccccc43)oc-2c1 | – | 1.14 µM | 1.04 µM | – | 2.41 µM | – | 3.05 µM | 2.7 µM | 6.94 µM | 0.661 µM | – | 0.489 µM | 1.11 µM | 1.56 µM | 1.37 µM | 0.567 µM | 0.318 µM | 0.257 µM | – | –
CC[N+](C)(CC)CCN1C(=O)c2ccccc2S1(=O)=O | > 100 µM | > 100 µM | > 100 µM | > 100 µM | > 100 µM | > 100 µM | > 100 µM | > 100 µM | > 100 µM | – | – | – | – | – | – | – | – | – | – | –
CC#CC(O)(C(=O)OC1CCCN(C)C1)C1=CC=CCC1 (centres undefined) | > 100 µM | > 100 µM | > 100 µM | > 100 µM | – | > 100 µM | > 100 µM | > 100 µM | > 100 µM | > 100 µM | – | – | – | – | – | – | – | – | – | –
CN(C(=O)c1ccc(Cl)s1)C(=S)N(C)C(=O)c1ccc(Cl)s1 | > 10 µM | > 10 µM | > 10 µM | > 10 µM | > 10 µM | > 10 µM | > 10 µM | > 10 µM | > 10 µM | > 10 µM | – | – | – | – | – | – | – | – | – | –
CN1CC(c2ccccc2)N(CCCCN2CC(c3ccccc3)N(C)CC2c2ccccc2)CC1c1ccccc1 (centres undefined) | 81.8 µM | > 100 µM | > 100 µM | > 100 µM | > 100 µM | > 100 µM | 42.6 µM | > 100 µM | > 100 µM | > 100 µM | – | – | – | – | – | – | – | – | – | –
COc1cccc(-c2nc3sccn3c2-c2ccnc(NCCNC(=O)Nc3cccc(C(F)(F)F)c3)n2)c1 | 26.8 µM | 18.8 µM | > 100 µM | 14 µM | – | 34.1 µM | 16.5 µM | – | 11.9 µM | 18.7 µM | 3.86 µM | 3.6 µM | – | 4.34 µM | – | 2.48 µM | 7.77 µM | 3.75 µM | 3.33 µM | 3.78 µM
